Experimental data from patent publication US20120003668A1, “HIGH RESOLUTION COMPLEX STRUCTURE AND ALLOSTERIC EFFECTS OF LOW MOLECULAR WEIGHT ACTIVATORS ON THE PROTEIN KINASE PDK1” (UNIVERSITAET DES SAARLANDES, priority 2008, published 2012).

Test system: PDK1
Assay: PDK1 protein kinase activity test with T308tide substrate
Assay type: biochemical, human
Settings: T308tide as substrate
Procedure: In brief, PDK1 activity assay was performed at room temperature (22° C.) in a 20 μl mix containing 50 mM Tris pH 7.5, 0.05 mg/ml BSA, 0.1% β-mercaptoethanol, 10 mM MgCl2, 100 μM [γ^32P]ATP (5-50 cpm/pmol), 0.003% Brij, 150 ng PDK1, and T308tide (from 0.1 to 1 mM). […] Experiments were repeated at least twice.

PDK1, sequence (O15530 51-360 limits assumed): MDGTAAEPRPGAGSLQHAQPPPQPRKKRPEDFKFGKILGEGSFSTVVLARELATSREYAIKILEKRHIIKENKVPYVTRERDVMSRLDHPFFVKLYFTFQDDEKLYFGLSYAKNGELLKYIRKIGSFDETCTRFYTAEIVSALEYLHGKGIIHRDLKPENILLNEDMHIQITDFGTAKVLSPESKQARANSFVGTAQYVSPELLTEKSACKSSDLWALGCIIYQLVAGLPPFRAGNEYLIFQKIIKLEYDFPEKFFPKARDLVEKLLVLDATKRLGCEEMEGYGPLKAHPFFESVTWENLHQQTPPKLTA

activation of PDK1: activated
Sequence: REPRILSEEEQEMFRDFDYIADWC [PIFtide, polypeptide derived from the C-terminal 24 amino acids of the PDK1 substrate PRK2]
